A short description of this assay: Inhibition of recombinant perforin-mediated lysis of human Jurkat T cells by 51Cr release assay.

The values that follow come from BindingDB's records for doi:10.1021/jm801063n (University of Auckland, 2009).

The structures appear in SMILES notation.

For orientation: IC50 means the concentration at which inhibition is half-maximal. As to `Cc1cc2c(c(=O)[nH]1)C(=O)O/C2=C\c1ccc(C)o1` [(Z)-6-Methyl-1-((5-methylfuran-2-yl)methylene)furo[3,4-c]pyridine-3,4(1H,5H)-dione], the IC50 was above 20 µM. Take `Cc1cc2c(c(=S)[nH]1)C(=O)O/C2=C\c1ccc(C)s1` [(Z)-6-Methyl-1-((5-methylthiophen-2-yl)methylene)-4-thioxo-4,5-dihydrofuro[3,4-c]pyridin-3(1H)-one]: the IC50 was found to be 7.2 µM. `Cc1cc2c(c(=S)[nH]1)C(=O)O/C2=C\c1ccc(-c2ccccc2)o1` [(Z)-6-Methyl-1-((5-phenylfuran-2-yl)methylene)-4-thioxo-4,5-dihydrofuro[3,4-c]pyridin-3(1H)-one]: the IC50 was 4 µM. As for `Cc1cc2c(c(=O)[nH]1)C(=O)N/C2=C\c1ccc(-c2ccccc2)s1` [(Z)-6-Methyl-1-((5-phenylthiophen-2-yl)methylene)-1H-pyrrolo[3,4-c]pyridine-3,4(2H,5H)-dione], the IC50 is above 20 µM. On to `Cc1cc2c(c(=S)[nH]1)C(=O)O/C2=C\c1ccc(-c2ccccc2)s1` [(Z)-6-Methyl-1-((5-phenylthiophen-2-yl)methylene)-4-thioxo-4,5-dihydrofuro[3,4-c]pyridin-3(1H)-one], for which the IC50 came to 3.4 µM. Then `Cc1cc2c(c(=O)[nH]1)C(=O)O/C2=C\c1ccc(-c2ccccc2)s1` [(Z)-6-Methyl-1-((5-phenylthiophen-2-yl)methylene)furo[3,4-c]pyridine-3,4(1H,5H)-dione], with 5 µM; and `Cc1cc2c(c(=S)[nH]1)C(=O)O/C2=C\c1csc(-c2ccccc2)c1` [(Z)-6-Methyl-1-((5-phenylthiophen-3-yl)methylene)-4-thioxo-4,5-dihydrofuro[3,4-c]pyridin-3(1H)-one], with above 20 µM. As to `Cc1cc2c(c(=S)[nH]1)C(=O)O/C2=C\c1cccs1` [(Z)-6-Methyl-1-(thiophen-2-ylmethylene)-4-thioxo-4,5-dihydrofuro[3,4-c]pyridin-3(1H)-one], the IC50 worked out at 8.6 µM. As to `Cc1cc2c(c(=S)[nH]1)C(=O)O/C2=C\c1ccsc1` [(Z)-6-Methyl-1-(thiophen-3-ylmethylene)-4-thioxo-4,5-dihydrofuro[3,4-c]pyridin-3(1H)-one], the IC50 was above 20 µM. The figure for `Cc1cc2c(c(=S)[nH]1)C(=O)O/C2=C\c1ccc(OC(F)(F)F)cc1` [(Z)-6-Methyl-4-thioxo-1-(4-(trifluoromethoxy)benzylidene)-4,5-dihydrofuro[3,4-c]pyridin-3(1H)-one] is above 20 µM; for `Cc1cc2c(c(=S)[nH]1)C(=O)O/C2=C\c1ccc(C(F)(F)F)cc1` [(Z)-6-Methyl-4-thioxo-1-(4-(trifluoromethyl)benzylidene)-4,5-dihydrofuro[3,4-c]pyridin-3(1H)-one] it is above 20 µM.

`CC(=O)Nc1ccc(/C=C2\OC(=O)c3c2cc(C)[nH]c3=S)cc1` [(Z)-N-(4-((6-Methyl-3-oxo-4-thioxo-4,5-dihydrofuro[3,4-c]pyridin-1(3H)-ylidene)methyl)phenyl)acetamide]: the IC50 was above 20 µM.
